Data taken from US20100152301A1, “Treatment of Viral Infections” (GOVERNMENT OF THE US, AS REPRESENTED BY THE SECRETARY, …, priority 2005, published 2010).

Legend:
HIV-1 integrase [1] = biological target: T1, HIV-1 integrase (Human immunodeficiency virus type 1 group M subtype B, UniProt P04585); assay: Disintegration assay with Y-oligomer substrate; type: biochemical; conditions: for IC50: In vitro IC50 Disintegration
T1 construct: Expression and purification of the recombinant HIV-1 integrase in Escherichia coli; made in house; host or cells: Escherichia coli
Experimental: (§1) Recombinant HIV integrase and oligonucleotide substrates. Expression and purification of the recombinant HIV-1 integrase in Escherichia coli were performed according to (Leh et al., 2000; Marchand et al., 2001) with addition of 10% glycerol to all buffers. The preparation of the Q148C/SSS-mutant integrase will be described elsewhere (Johnson et al., 2005). The oligonucleotide substrates, except those used for the disulfide crosslinking (FIG. 5A), were purchased from Integrated DNA Technologies, Inc. (Coraville, Iowa) and purified by polyacrylamide gel. The single-stranded oligonucleotides were 5′-end labeled with [γ^32P]-ATP (Perkin Elmer, Wellesley, M A) and T4 polynucleotide kinase (New England BioLabs, Ipswich, M A). Unincorporated nucleotide was removed using mini Quick Spin Oligo columns (Roche Diagnostics, Indianapolis, Ind.). Substrates were obtained after annealing with complementary non-labeled oligonucleotides. The thiol-modified substrate (FIG. 5A) for disulfide crosslinking assay was synthesized as essentially described by W. Santos and G. Verdine (Department of Chemistry and Chemical Biology, Harvard University, Cambridge, Mass.) (They and Verdine, 2002).
(§2) Integrase catalytic assays. Reactions were performed in 10 μl with 300 nM of recombinant IN, 20 nM of the 5′-end [^32P]-labeled oligonucleotide substrates and inhibitors at the indicated concentrations. 10% DMSO was included in controls. Reactions were incubated for 40 min at 37° C. in a buffer containing a final concentration of 25 mM MOPS, pH 7.2, 25 mM NaCl, 14.3 mM β-mercaptoethanol and 7.5 mM of divalent cations (MgCl2 or MnCl2 as indicated). Reactions were stopped by addition of 20 μl loading dye (10 mM EDTA, 98% deionized formamide, 0.025% xylene cyanol and 0.025% bromophenol blue). Reactions were heated at 95° C. for 1 min before electrophoresis in 20% polyacrylamide-7 M urea gels. Gels were dried and reaction products were visualized and quantitated with a Molecular Dynamics PhosphorImager (Sunnyvale, Calif.). Densitometric analyses were performed using ImageQuant from the Molecular Dynamics software. The concentrations at which enzyme activity was reduced by 50% (IC50), was determined using “Prism” software (GraphPad Software, San Diego, Calif.) for nonlinear regression to fit dose-response data to logistic curve models.

HIV-1 protease = HIV-1 protease (Human immunodeficiency virus type 1 group M subtype B, UniProt P04585); assay: Fluorimetric HIV-1 protease assay; type: biochemical; conditions: concentration up to 25 μM; data not shown
Experimental: Fluorimetric HIV-1 protease assay. The fluorescent HIV-1 protease substrate (RE-(EDANS)-SQNYPIVQK-(DABCYL)-R) was obtained from Molecular Probes, Inc. (Eugene, Oreg.). Substrate and buffer were pre-warmed at 37° C. for at least 20 min before use. The protease (25 nM final concentration) was incubated in the manufacturer's recommended assay buffer (100 mM Na acetate, 1M NaCl, 1 mM EDTA, 1 mM DTT, 10% DMSO and 1 mg ml^−1 BSA pH 4.7) at 37° C. in the presence of 1-25 μM NSC 18806 for 10 min and then added to the warmed substrate solution (40 μM) containing the different treatments to initiate the reaction. Acetyl pepstatin (Sigma, St. Louis, Mo.) at 20 nM was used a positive HIV-1 protease inhibitor control. The total assay volume was 100 µL. Fluorescence was monitored for 30 min in a fluorescence microplate reader (FMAX, Molecular Devices, Sunnyvale, Calif.) with 355 nm excitation and 460 nm emission filters and the rate of reactions compared for the different conditions.

HIV-1 integrase [2] = biological target: T1, HIV-1 integrase; assay: Integrase catalytic assay, strand transfer (ST), 21 bp duplex substrate; type: biochemical; conditions: for IC50: In vitro IC50 21 bp substrate ST
Experimental: as §1, §2

HIV-1 integrase [3] = biological target: T1, HIV-1 integrase; assay: Strand transfer assay with preprocessed (19/21) DNA substrate; type: biochemical; conditions: In vitro IC50 Preprocessed substrate
Experimental: as §1, §2

MT-2 cells = type: cell-based; conditions: human, 4 days
Experimental: (§3) Inhibition of HIV-induced cytopathic effect in cell culture. The MT-2 cells were grown in RPMI-1640 medium with GlutaMAX™, supplemented with 10% (v/v) heat-inactivated fetal bovine serum (both from Gibco, Invitrogen corporation, Carlsbad). The cells were maintained at 37° C. in a humidified atmosphere of 5% CO2 in air. Every 4-5 days, cells were spun down and seeded at 2×10^5 cells/ml in new cell culture flasks. HIV ([…] isolate) was obtained from Advanced Biotechnology Incorporated (Columbia, Md.). The virus stock [3,2×10^4 CCID50 (50% cell culture infective dose) per ml as determined for MT-2 cells] was stored at −70° C. until used. Stock solutions of compounds were diluted using medium directly into 96-well assay plate (Costar, Corning inc, Corning, N.Y.).
(§4) Cells were then infected with 100 CCID50 or mock-infected. The cell cultures were incubated at 37° C. in a humidified atmosphere of 5% CO2 in air. […] The percent cell viability in drug treated uninfected and infected cells was determined based on the viability of the uninfected control drug treated cells. The concentration of drug required to inhibit approximately 50% of the HIV-1 induced cytotoxicity was calculated from the plot of compound concentration verses the percent viable cells.

HIV-1IIIB = assay: Inhibition of HIV-induced cytopathic effect in MT-2 cell culture; type: cell-based; conditions: MT-2 cells
Experimental: as §3, §4

HIV-1 integrase [4] = biological target: T1, HIV-1 integrase; assay: Integrase binding to HIV DNA, Schiff base crosslinking assay; conditions: Mg2+
Experimental: Integrase binding to HIV DNA using the shiff-base assay. The shiff-base assay was performed as described (Mazumder and Pommier, 1995). Briefly, 300 nM recombinant IN was incubated with inhibitors (at the indicated concentration) for 15 min at 37° C. Subsequently, 20 nM of 5′-end labeled substrate containing the abasic oligonucleotide (FIG. 6A) was added for 10 min at room temperature in reaction buffer described above for integrase catalytic assays. A freshly prepared solution of sodium borohydride (0.1 M final concentration) was added for 5 min. An equal volume (10 μl) of 2×SDS-polyacrylamide gel electrophoresis buffer (Invitrogen, Carlsbad, Calif.) was added in each reaction. Reaction products were heated at 95° C. for 1 min before analysis by electrophoresis in a 12-20% polyacrylamide gels (Invitrogen, Calif., USA). Gels were dried and reaction products were quantitated using the same method as described above.

HIV-1 integrase [5] = biological target: T1, HIV-1 integrase; assay: Integrase catalytic assay, 3′-processing (3′-P), 21 bp duplex substrate; type: biochemical; conditions: In vitro IC50 21 bp substrate 3′-P
Experimental: as §1, §2

[6] = biological target: T2, Q148C/SSS-mutant integrase (Human immunodeficiency virus type 1 group M subtype B, UniProt P04585, C1203S/C1212S/C1427S/Q1295C); assay: biochemical; type: binding, HIV-1
T2 construct: 10 μM recombinant Q148C/SSS-mutant integrase was incubated with 10 μM DNA substrate; made in house
Experimental: Briefly, 10 μM recombinant Q148C/SSS-mutant integrase was incubated with 10 μM DNA substrate (FIG. 5A) containing tethered thiols in the presence of 20 mM Tris, pH 7.4, 10% glycerol and 7.5 mM of divalent cations (MgCl2 or MnCl2 as indicated) for 20 min at 37° C. Reactions were stopped by the addition of 20 mM methylmethanethiosulfonate (capping reagent). Non-reducing gel loading buffer (100 mM Tris-HCl, pH 6.8, 4% SDS, 0.2% bromophenol blue, 20% glycerol) was added and samples were heated at 95° C. before loading onto 16% tricine gels (Invitrogen, Carlsbad, Calif.). Gels were stained with Microwave Blue according to manufacturer's recommendations (Protiga, Frederick, Md.).
DNA (20 nM) containing a [5′-^32P]-label on one strand and a thiol-modified cytosine on the other strand was added and reactions were capped with methylmethanethiosulfonate at 1 minute. Following capping, non-reducing gel loading buffer (100 mM Tris-HCl, pH 6.8, 4% SDS, 0.2% bromophenol blue, 20% glycerol) was added and samples were directly loaded on 16% tricine gels (Invitrogen, Carlsbad, Calif.). Gels were dried and reaction products were quantitated using the same way as described above.

CC(C)c1ccc(O)c(=O)c(O)c1 [NSC 18806, β-thujaplicinol]
IC50 (HIV-1 integrase [1]; Mg2+): > 333 µM | IC50 (HIV-1 integrase [1]; Mn2+): 23.8 µM | inhibition of disintegration (in words) (HIV-1 integrase [1]; Mg2+): inability of NSC 18806 to inhibit disintegration | inhibition of disintegration (in words) (HIV-1 integrase [1]; Mn2+): only inhibited in the presence of Mn^2+ at high drug concentration | inhibition at 333 µM (HIV-1 integrase [1]; read-out: inhibition activity, disintegration): 5 to 20% | inhibition of HIV-1 protease (in words) (HIV-1 protease): failed to inhibit HIV-1 protease | IC50 for 3′-P relative to IC50 for ST (HIV-1 integrase [2]; 21 bp duplex, in the presence of either Mg2+ or Mn2+): approximately 5 fold | IC50 (HIV-1 integrase [2]; Mg2+): 21.6 ± 3.4 µM | IC50 (HIV-1 integrase [2]; Mn2+): 4.8 ± 2.5 µM | IC50 (HIV-1 integrase [3]; Mg2+): 18.1 ± 6.2 µM | IC50 (HIV-1 integrase [3]; Mn2+): 5 µM | concentrations with presence of toxicity (MT-2 cells): ≥ 12 µM | IC50 (HIV-1IIIB; Human immunodeficiency virus 1, MT2, 96 h, four days after infection, read-out: estimated IC50, protection of infected cells from HIV-induced cytopathic effect): ~12 µM | activity in HIV infectivity assay (in words) (HIV-1IIIB): exhibits cytoprotective activity | inhibition of Schiff base IN-DNA crosslinking (in words) (HIV-1 integrase [4]): did not block | IC50 (HIV-1 integrase [5]; Mg2+): 117 ± 7.1 µM | IC50 (HIV-1 integrase [5]; Mn2+): 24.6 µM | IC50 [6]: 32 µM | inhibition of integrase-DNA disulfide-crosslinking (in words) ([6]; drug 1 mM, Mg2+ or Mn2+ (FIG. 5B)): metal-dependent inhibition
